From patent US20210318306A1, “Compositions for and Methods of Neutralizing Lipopolysaccharide Toxicity and Methods of Identifying the Same” (priority 2020, published 2021)
Where “and” joins values, the source holds several entries; their conditions need not be identical. Equal values may be shown once. Entries after “also recorded” stand apart in the source; their conditions may differ.

Experiments:
Type in all cases: cell-based, human
HEK-Blue hTLR4 cells [1] = experiment: IL-8 dose response in HEK-Blue hTLR4 cells with P.g. LPS 1 μg/ml and 3X-24X dilutions of simple solutions (Example 4)
Description: (§1) HEK-Blue hTLR4 cells (Invivogen, cat #hkb-htlr4) were cultured in a DMEM culture medium supplemented with 10% FBS and 1% penstrep at 37° C. with 5% CO2. LPS from Porphyromonas gingivalis (P.g. LPS; Invivogen, cat #tlrl-pglps and cat #tlrl-ppglps) activates TLR4 receptor and downstream inflammation in HEK-Blue hTLR4 cells. P.g. LPS is co-incubated with HEK-Blue hTLR4 cells in the absence or presence of the simple solutions. Standard and ultrapure P.g. LPS were both used due to ultrapure being a specific ligand for the TLR4 receptor while standard LPS is a ligand for both TLR2 and TLR4.
(§2) The simple solutions a) Zinc Oxide (ZnO), b) Zinc Citrate (ZnCitrate), c) Zinc Oxide+Zinc Citrate (Dual Zinc; DZ), d) Dual Zinc+Arginine (DZA, zinc oxide, zinc citrate and arginine), and e) L-Arginine (Arg) were diluted at different concentrations with culture medium.
2) experiments using 3×, 6×, 12×, and 24× dilution fold of the simple solutions (see Table 6 below).
(§3) HEK-Blue hTLR4 cells were plated in 96-well plates and grown until confluent at 37° C. and 5% CO2 in HEK-blue selection media (DMEM with 10% FBS, 1% penicillin-streptomycin, and antibiotics for HEK-blue selection (Invivogen, cat #hb-sel)). Cells were co-incubated overnight with varying concentrations of different zinc actives as well as arginine and stimulated with either 0.1 μg/mL standard P. gingivalis LPS or 1 μg/mL ultrapure P. gingivalis LPS. Cell supernatants were collected for human inflammation cytokine panels using Multiplex and ELISA analysis.
(§4) Multiplex analysis was performed using the MILLIPLEX MAP Human Cytokine/Chemokine Magnetic Bead Panel—Immunology Multiplex Assay for IL-1, IL-6, IL-8, TNFα, and GM-CSF (Millipore Sigma, cat #HCYTOMAG-60K).
In order to understand the role of Arginine in the inhibition of LPS induced inflammation, a dose response experiment was performed using ultrapure P.g. LPS, which only specifically targets TLR4 receptor, in order to maximize the activation of NF-kB and expression of IL-8.
The testing samples were prepared as the stock simple solutions. […] The first serial dilution was made 3 times with water, a dilution factor simulating dilution of toothpastes while brushing. Additional serial dilutions were made by 2-fold of the first dilution to study dose response effect.

HEK-TLR4 cells = experiment: P. gingivalis LPS-induced cytokine secretion by HEK-TLR4 cells, Luminex 5-plex magnetic bead panel (Example 2)
Description: Commercially available HEK-Blue TLR4 cells (Invitrogen) are recombinant HEK 293 cells that have been transformed with DNA that encodes TLR4 that is expressed and present on the cell surface. HEK-Blue TLR4 cells are grown ion culture and used can be used in experimental assays to identify test compositions that modulate inflammation pathways stimulated by TLR4-LPS interaction.
Initial for LPS and zinc-containing starting solutions were made as follows. An LPS starting solution was prepared as follows: a […] solution of LPS was prepared using 2 μl of 1 mg/ml LPS and 10 ml media. Multiple zinc starting solutions were each prepared using media as diluent: a) 20 mM zinc oxide, b) 2 mM zinc oxide, c) 20 mM zinc citrate, d) 2 mM zinc citrate, e) 20 mM of a composition containing a 2:1 mixture of zinc oxide and zinc citrate and f) 2 mM of a composition containing a 2:1 mixture of zinc oxide and zinc citrate. The starting solutions were used to prepare various test samples.
In some embodiments, control assays include “Untreated”, in which eight Zinc test samples without LPS were made: […], 10 mM zinc oxide+zinc citrate, 1 mM zinc oxide+zinc citrate, 10 mM zinc oxide+zinc citrate+arginine and 1 mM zinc oxide+zinc citrate+arginine, The test samples without LPS were prepared by diluting the zinc starting solutions with equal parts media. Eight test samples with LPS were made: […], […], […], […], 10 mM zinc oxide+zinc citrate LPS, 1 mM zinc oxide+zinc citrate LPS, 10 mM zinc oxide+zinc citrate+arginine LPS and 1 mM zinc oxide+zinc citrate+arginine LPS. The test samples with LPS were prepared by diluting the zinc starting solutions with equal parts LPS starting solution.
(§5) Cells were grown to 70-80% confluent in a 96 well plate. 100 uL of a test sample was added to a well. Cells with test sample were incubated overnight. Media was collected from each well and transferred to a corresponding well in a 96-well plate. Assays to measure proinflammatory cytokines including IL-8 secretion were performed for each well.
(§6) Inflammation markers in supernatants collected from HEK-Blue cells co-incubated with Zinc and Zinc+LPS were quantified using Luminex Magpix instrument (MAGPIX-XPON42) and human 5-plex cytokine/chemokine Magnetic bead panel (Millipore HCYTOMAG-60K). The human 5-plex cytokine/chemokine Magnetic bead panel quantifies TNF-α, IL-6, IL-8, IL-1β and GM-CSF.
The Luminex Kit Procedure outlined in the instruction manual for each separate Luminex kit was performed on the supernatants collected from the HEK-Blue cells co-incubated with Zinc test solutions without LPS and Zinc test solutions plus LPS. Quality controls in range for the specified analytes were performed to ensure levels were within the acceptable range.
To run the Luminex Test, all necessary calibration and verification procedures as outlined by the MagPix and xPonent softwares were completed and the appropriate protocol for the assay was selected. The standards were verified to be correct and complete the plate layout of samples was verified. […] The “Avg. Result” was identified in the results generated.
Experiments were conducted to identify compositions that inhibit P. gingivalis LPS-induced IL-8, TNFα, GM-CSF, IL-1β and IL-6 by HEK-TLR4 cells. HEK-TLR4 cells in 96 well plates were contacted with 100 μl samples. IL-8, TNFα, GM-CSF, IL-1β and IL-6 were detected as described above.

HEK-Blue hTLR4 cells [2] = experiment: IL-8 in HEK-Blue hTLR4 cell supernatants with standard P.g. LPS and simple solutions at 1 mM vs 10 mM total zinc (Example 4)
Description: as §1, §2
1) experiments using 1 mM vs 10 mM total zinc; and
as §3, §4
Testing was performed using total zinc concentrations to normalize the amount the zinc applied in the cell culture medium during co-incubation. Two concentrations of total zinc ion are based on the potential amount of zinc retained on the mouth soft tissue surface.

HEK-Blue hTLR4 cells [3] = experiment: E. coli LPS- and P. gingivalis LPS-induced IL-8 by HEK-Blue hTLR4 cells (Example 3)
Description: as §5, §6
Experiments were conducted to identify compositions that inhibit E. coli LPS-induced IL-8 and P. gingivalis LPS-induced IL-8 by HEK-Blue hTLR4 cells. HEK-TLR4 cells in 96 well plates were contacted with 100 μl samples. IL-8 was detected as described above.

[4] = 3X dilution of stock simple solution (Table 6) with P.g. LPS (1 μg/ml)
[5] = 6X dilution of stock simple solution (Table 6) with P.g. LPS (1 μg/ml)
[6] = 12X dilution of stock simple solution (Table 6) with P.g. LPS (1 μg/ml)
[7] = 24X dilution of stock simple solution (Table 6) with P.g. LPS (1 μg/ml)
[8] = 300 ppm with 0.1μ/ml P. gingivalis LPS
[9] = 600 ppm with 0.1μ/ml P. gingivalis LPS
[10] = P. gingivalis LPS, 300 and 600 ppm
[11] = 1 mM total zinc with standard P.g. LPS (0.1 μg/ml)
[12] = 10 mM total zinc with standard P.g. LPS (0.1 μg/ml)

## [O]=[Zn] [ZnO, zinc oxide]
HEK-Blue hTLR4 cells [1]; [4]
  IL-8 Concentration, Average: 29.0 pg/mL
  IL-8 Concentration, replicate: 32.6 pg/mL and 25.5 pg/mL
HEK-Blue hTLR4 cells [1]; [5]
  IL-8 Concentration, Average: 510.0 pg/mL
  IL-8 Concentration, replicate: 646.1 pg/mL and 374.0 pg/mL
HEK-Blue hTLR4 cells [1]; [6]
  IL-8 Concentration, Average: 2658.0 pg/mL
  IL-8 Concentration, replicate: 2699.5 pg/mL and 2616.4 pg/mL
HEK-Blue hTLR4 cells [1]; [7]
  IL-8 Concentration, Average: 3015.5 pg/mL
  IL-8 Concentration, replicate: 3010.4 pg/mL and 3020.6 pg/mL
HEK-Blue hTLR4 cells [1]; when dilution folds increase
  inhibition of IL-8 (in words): lose the inhibition of IL-8 gradually
HEK-TLR4 cells; [8]
  GM-CSF (raw data, single replicate): 0.5501 pg/ml (2×) and 0.633 pg/ml and 1.577 pg/ml
  IL-1β (raw data, single replicate): 6.491 pg/ml (2×) and 5.944 pg/ml and 6.674 pg/ml
  IL-6 (raw data, single replicate): 3.316 pg/mL and 3.775 pg/mL and 3.171 pg/mL and 4.174 pg/mL
  IL-8 (average result): 24200.24439257880 pg/mL
  IL-8 (raw data, single replicate): 31890.081340469700 pg/mL and 39006.703793117100 pg/mL and 13910.330133842900 pg/mL and 11993.862302885500 pg/mL
  TNF-α (average result): 42.3 pg/mL
  TNFα (raw data, single replicate): 41.56 pg/mL and 39.8 pg/mL and 38.16 pg/mL and 49.7 pg/mL
HEK-TLR4 cells; 300 ppm, without LPS
  GM-CSF (raw data, single replicate): <3.2 pg/ml (2×) and 0.3057 pg/ml and 0.5501 pg/ml
  IL-1β (raw data, single replicate): 0.4614 pg/ml (2×) and 0.8647 pg/ml and 1.507 pg/ml
  IL-6 (raw data, single replicate): 0.4605 pg/mL and 0.6587 pg/mL and 0.9797 pg/mL and 1.293 pg/mL
  IL-8 (average result): 452.8 pg/mL
  IL-8 (raw data, single replicate): 340.2 pg/mL and 393.1 pg/mL and 458.8 pg/mL and 619.1 pg/mL
  TNF-α (average result): 1.202 pg/mL
  TNFα (raw data, single replicate): 0.9029 pg/mL and 1.031 pg/mL and 1.244 pg/mL and 1.631 pg/mL
HEK-TLR4 cells; [9]
  GM-CSF (raw data, single replicate): 1.142 pg/mL and 1.315 pg/mL and 0.3863 pg/mL and 0.3057 pg/mL
  IL-1β (raw data, single replicate): 6.735 pg/mL and 6.309 pg/mL and 6.035 pg/mL and 5.701 pg/mL
  IL-6 (raw data, single replicate): 2.617 pg/mL and 2.44 pg/mL and 1.782 pg/mL and 2.023 pg/mL
  IL-8 (average result): 17453.90185032290 pg/mL
  IL-8 (raw data, single replicate): 21030.114488079100 pg/mL and 14514.694724312700 pg/mL and 20392.976523123200 pg/mL and 13877.821665776500 pg/mL
  TNF-α (average result): 26.47 pg/mL
  TNFα (raw data, single replicate): 43.99 pg/mL and 24.75 pg/mL and 19.13 pg/mL and 18.02 pg/mL
HEK-TLR4 cells; 600 ppm, without LPS
  GM-CSF (raw data, single replicate): 0.8854 pg/ml and 0.2263 pg/ml and 0.001671 pg/ml (2×)
  IL-1β (raw data, single replicate): 2.871 pg/mL and 1.039 pg/mL and 0.4329 pg/mL and 0.4044 pg/mL
  IL-6 (raw data, single replicate): 1.011 pg/ml and 0.3248 pg/ml and <3.2 pg/ml (2×)
  IL-8 (average result): 558.8 pg/mL
  IL-8 (raw data, single replicate): 993.3 pg/mL and 512.5 pg/mL and 355.4 pg/mL and 374 pg/mL
  TNF-α (average result): 2.405 pg/mL
  TNFα (raw data, single replicate): 3.729 pg/mL and 2.195 pg/mL and 1.804 pg/mL and 1.891 pg/mL
HEK-TLR4 cells; [10]
  effect on LPS-induced TNFα (in words): reduced LPS-induced TNFα; also recorded: significantly reduced
  effect on induction of IL-8 by LPS (in words): significantly reduced; also recorded: comparatively small effect
HEK-Blue hTLR4 cells [2]; [11]
  IL-8 Concentration, Average: 39.5 pg/mL
  IL-8 Concentration, replicate: 42.95 pg/mL and 30.75 pg/mL and 35.45 pg/mL and 48.85 pg/mL
HEK-Blue hTLR4 cells [2]; [12]
  IL-8 Concentration, Average: 18.9 pg/mL
  IL-8 Concentration, replicate: 20.35 pg/mL and 27.65 pg/mL and 10.45 pg/mL and 16.95 pg/mL
HEK-Blue hTLR4 cells [2]; at both 1 mM and 10 mM
  IL-8 induced by co-incubation with P.g. LPS (in words): reduced
HEK-Blue hTLR4 cells [3]; 100 ppm with 1.0 μg/ml E. coli LPS
  IL-8 (average): 317267829 pg/mL
HEK-Blue hTLR4 cells [3]; 100 ppm with 1.0 μg/ml P. gingivalis LPS
  IL-8 (average): 210374063 pg/mL
HEK-Blue hTLR4 cells [3]; 100 ppm, without LPS
  IL-8 (average): 610.1 pg/mL
HEK-Blue hTLR4 cells [3]; 500 ppm and 100 ppm
  inhibitory effect on P. gingivalis LPS-induced IL-8 (in words): inhibitory effect
HEK-Blue hTLR4 cells [3]; 500 ppm with 1.0 μg/ml E. coli LPS
  IL-8 (average): 564963251 pg/mL
HEK-Blue hTLR4 cells [3]; 500 ppm with 1.0 μg/ml P. gingivalis LPS
  IL-8 (average): 275576697 pg/mL
HEK-Blue hTLR4 cells [3]; 500 ppm, without LPS
  IL-8 (average): 448.6 pg/mL
